# Tests used:
# Format in all cases: in vivo
# [1] = tested on: ZEA MAYS L.; assay: Preemergence herbicidal evaluation, ZEAMX (Corn, Field); settings: rated four to five weeks after treatment
# In short: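 Preemergence herbicidal activity on field corn: seeds in potting soil were sown atop roughly one inch of soil in separate pint cups, treated, and grown under standard greenhouse care. Four to five weeks post-treatment, stand, vigor, malformation, size, chlorosis and overall appearance were compared with a control and scored 0-9.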
# [2] = tested on: TRITICUM AESTIVUM, CV. APOLLO; assay: Preemergence herbicidal evaluation, TRZAWO (Wheat, Winter, CV. APOLLO); settings: rated four to five weeks after treatment
# In short: (§1)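 Injury scored visually (0–9; stand, vigor, malformation, size, chlorosis) versus untreated control, four to five weeks post-treatment. Application: aqueous acetone spray onto freshly planted soil cups, equivalent to about 0.125 to 0.50 kg/ha, plants then kept under standard greenhouse care.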
# [3] = tested on: GLYCINE MAX(L) MERR. CV. WILLIAMS; assay: Preemergence herbicidal evaluation, GLXMAW (Soybean, Williams); settings: rated four to five weeks after treatment
# In short: as §1
# [4] = tested on: SAGITTARIA PYGMAEA, L.; assay: Preemergence weed control under flooded paddy conditions, SAGPY (Arrowhead (Pygmaea)); settings: preemergence, 3-4 weeks after treatment
# In short: (§2)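 In undrained pots of silt loam flooded to 1.5-3 cm, compounds are pipetted into the water before emergence at the equivalent of about 0.5, 0.25, 0.125 and 0.063 kg/ha. Plants are scored 0-9 for stand, vigor, malformation, size and chlorosis at test end (3-4 weeks).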
# [5] = tested on: AMBROSIA ARTEMISIIFOLIA, L.; assay: Preemergence herbicidal evaluation, AMBEL (Ragweed, Common); settings: rated four to five weeks after treatment
# In short: as §1
# [6] = tested on: CYPERUS SEROTINUS, ROTTB.; assay: Preemergence weed control under flooded paddy conditions, CYPSE (Flatsedge); settings: preemergence, 3-4 weeks after treatment
# In short: as §2
# [7] = tested on: ORYZA SATIVA, L. TEBONNET; assay: Rice tolerance to post-transplant applications under flooded paddy conditions, ORYSAT (Rice, Tebonnet); settings: post-transplant rice, 3-4 weeks after treatment
# In short: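 Greenhouse pots of silt loam, each with two transplanted ten-day-old seedlings, are held under 1.5 to 3 cm of standing water. Three days later the compound is applied to the flooded surface at about 0.5, 0.25, 0.125 or 0.063 kg/ha. Damage is scored visually 0-9 after 3-4 weeks.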
# [8] = tested on: GALIUM APARINE; assay: Preemergence herbicidal evaluation, GALAP (Galium); settings: rated four to five weeks after treatment
# In short: as §1
# [9] = tested on: ABUTILON THEOPHRASTI, MEDIC.; assay: Preemergence herbicidal evaluation, ABUTH (Velvetleaf); settings: rated four to five weeks after treatment
# In short: as §1
# [10] = tested on: ORYZA SATIVA, L. TEBONNET; assay: Preemergence herbicidal evaluation, ORYSAT (Rice, Tebonnet); settings: rated four to five weeks after treatment
# In short: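 Preemergence herbicidal activity on Tebonnet rice was assessed using pint cups of seeded potting soil kept under conventional greenhouse care after treatment. Tests ended four to five weeks later. Each cup received a 0-9 rating from visual comparison with a control covering stand, vigor, malformation, size, chlorosis and overall appearance.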
# [11] = tested on: ECHINOCHLOA CRUS-GALLI, (L) BEAU; assay: Preemergence herbicidal evaluation, ECHCG (Barnyardgrass); settings: rated four to five weeks after treatment
# In short: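 In this preemergence herbicide test, cups holding seeds of ECHCG sown in potting soil over roughly one inch of soil were treated and then grown under conventional greenhouse care. Tests were ended four to five weeks after treatment, and injury was scored 0-9 from stand, vigor, malformation, size, chlorosis and overall appearance relative to a control.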
# [12] = tested on: SETARIA VIRIDIS, (L) BEAU; assay: Preemergence herbicidal evaluation, SETVI (Foxtail, Green); settings: rated four to five weeks after treatment
# In short: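 Preemergence herbicidal activity against green foxtail was assessed by planting seed mixed with potting soil over about one inch of soil in individual pint cups. After treatment the cups stayed in a greenhouse under standard care. At four to five weeks, each cup was scored 0-9 relative to a control based on stand, vigor, malformation, size, chlorosis and overall appearance.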
# [13] = tested on: IPOMOEA SPP.; assay: Preemergence herbicidal evaluation, IPOSS (Morningglory spp.); settings: rated four to five weeks after treatment
# In short: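 This preemergence greenhouse test scored herbicidal effect on morningglory planted in pint cups, with seed mixed into potting soil and placed over about one inch of soil. After treatment the cups were watered and kept under conventional care. At four to five weeks, plant stand, vigor, malformation, size, chlorosis and overall appearance were compared with a control and rated 0-9.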
# [14] = tested on: CHENOPODIUM ALBUM, L.; assay: Postemergence herbicidal evaluation, CHEAL (Lambsquarters, Common)
# In short: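 Postemergence herbicidal activity on Chenopodium album was tested by spraying two-week-old seedlings grown in jiffy flats with compound in acetone/water (50/50) plus 0.5% TWEEN®20, using a 40 psi nozzle. Four to five weeks after treatment, stand, vigor, malformation, size, chlorosis and overall appearance were scored 0-9 relative to controls, with repeat tests averaged.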
# [15] = tested on: GLYCINE MAX(L) MERR. CV. WILLIAMS; assay: Postemergence herbicidal evaluation, GLXMAW (Soybean, Williams); design: key to GLXMAW rating / Herbicidal effect rating, GLXMAW / GLXMAW: 0-9 visual rating scale vs untreated control
# In short: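 Herbicidal injury to Williams soybean was assessed after a postemergence spray of two-week-old seedlings grown in jiffy flats. Compounds were dispersed in an acetone/water (50/50) mixture with 0.5% TWEEN®20 surfactant and applied at 40 psi. After four to five weeks in the greenhouse, stand, vigor, malformation, size and chlorosis were compared against a control on a 0-9 scale, and results from replicate tests were averaged.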
smiles,measurement,setting,value
COC(=O)Cn1c(=O)n(C)c(=O)n(-c2cc(Oc3ccc([S+](C)[O-])cc3Cl)ccc2[N+](=O)[O-])c1=O (stereo not drawn) [Compound 36],ZEAMX herbicidal rating,[1]; Rate 0.125 kg/ha,0.0
same,ZEAMX herbicidal rating,[1]; Rate 0.250 kg/ha,0.0
same,ZEAMX herbicidal rating,[1]; Rate 0.500 kg/ha,0.0
same,TRZAWO herbicidal rating,[2]; Rate 0.125 kg/ha,0.0
same,TRZAWO herbicidal rating,[2]; Rate 0.250 kg/ha,0.0
same,TRZAWO herbicidal rating,[2]; Rate 0.500 kg/ha,0.0
same,GLXMAW herbicidal rating,[3]; Rate 0.125 kg/ha,0.0
same,GLXMAW herbicidal rating,[3]; Rate 0.250 kg/ha,0.0
same,GLXMAW herbicidal rating,[3]; Rate 0.500 kg/ha,0.0
same,"Herbicidal effect rating, SAGPY",[4]; 0.063 kg/ha,0.0
same,"Herbicidal effect rating, SAGPY",[4]; 0.125 kg/ha,0.0
same,"Herbicidal effect rating, SAGPY",[4]; 0.250 kg/ha,0.0
same,"Herbicidal effect rating, SAGPY",[4]; 0.500 kg/ha,0.0
same,AMBEL herbicidal rating,[5]; Rate 0.125 kg/ha,0.0
same,AMBEL herbicidal rating,[5]; Rate 0.250 kg/ha,0.0
same,AMBEL herbicidal rating,[5]; Rate 0.500 kg/ha,0.0
same,"Herbicidal effect rating, CYPSE",[6]; 0.063 kg/ha,0.0
same,"Herbicidal effect rating, CYPSE",[6]; 0.125 kg/ha,0.0
same,"Herbicidal effect rating, CYPSE",[6]; 0.250 kg/ha,0.0
same,"Herbicidal effect rating, CYPSE",[6]; 0.500 kg/ha,0.0
same,"Herbicidal effect rating, ORYSAT",[7]; 0.063 kg/ha,0.0
same,"Herbicidal effect rating, ORYSAT",[7]; 0.125 kg/ha,0.0
same,"Herbicidal effect rating, ORYSAT",[7]; 0.250 kg/ha,0.0
same,"Herbicidal effect rating, ORYSAT",[7]; 0.500 kg/ha,0.0
same,GALAP herbicidal rating,[8]; Rate 0.125 kg/ha,0.0
same,GALAP herbicidal rating,[8]; Rate 0.250 kg/ha,0.0
same,GALAP herbicidal rating,[8]; Rate 0.500 kg/ha,0.0
same,ABUTH herbicidal rating,[9]; Rate 0.125 kg/ha,0.0
same,ABUTH herbicidal rating,[9]; Rate 0.250 kg/ha,0.0
same,ABUTH herbicidal rating,[9]; Rate 0.500 kg/ha,0.0
same,ORYSAT herbicidal rating,[10]; Rate 0.125 kg/ha,0.0
same,ORYSAT herbicidal rating,[10]; Rate 0.250 kg/ha,0.0
same,ORYSAT herbicidal rating,[10]; Rate 0.500 kg/ha,0.0
same,ECHCG herbicidal rating,[11]; Rate 0.125 kg/ha,0.0
same,ECHCG herbicidal rating,[11]; Rate 0.250 kg/ha,0.0
same,ECHCG herbicidal rating,[11]; Rate 0.500 kg/ha,0.0
same,SETVI herbicidal rating,[12]; Rate 0.125 kg/ha,0.0
same,SETVI herbicidal rating,[12]; Rate 0.250 kg/ha,0.0
same,SETVI herbicidal rating,[12]; Rate 0.500 kg/ha,0.0
same,IPOSS herbicidal rating,[13]; Rate 0.125 kg/ha,0.0
same,IPOSS herbicidal rating,[13]; Rate 0.250 kg/ha,0.0
same,IPOSS herbicidal rating,[13]; Rate 0.500 kg/ha,0.0
same,CHEAL rating,[14]; Rate 0.125 kg/ha,8.0
same,CHEAL rating,[14]; Rate 0.250 kg/ha,8.0
same,CHEAL rating,[14]; Rate 0.500 kg/ha,8.0
same,GLXMAW rating,[15]; Rate 0.125 kg/ha,5.0
same,GLXMAW rating,[15]; Rate 0.250 kg/ha,5.0
same,GLXMAW rating,[15]; Rate 0.500 kg/ha,5.0

# Reference: EP0745595A1, “3-(3-Aryloxyphenyl)-1-(substituted methyl)-s-triazine-2,4,6-oxo or thiotrione herbicidal agents” (American Cyanamid Company, priority 1995, dated 1996)
